Among the test systems are UACC-257 melanoma; MDA-N; NCI-H522 lung; LOX IMVI melanoma; DU-145 prostate; HL-60(TB) leukemia; HT29 colon; SK-MEL-5 melanoma; SNB-19 CNS; MDA-MB-435; EKVX NSCLC; ACHN renal; CAKI-1 renal; M14 melanoma; OVCAR-3 ovarian.
Test in all cases: growth of human tumour cells (NCI), 48 h

Structures are written as SMILES. Values joined by “and” are separate entries in the source; they are usually repeats but may differ in a detail not shown here. Identical values can stand only once.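 These data come from cells grown in 96-well plates and exposed to compound for 48 hours at five concentrations. TGI: concentration producing complete growth inhibition.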

As for `CC(C)NC(=O)OCc1c(COC(=O)NC(C)C)c(-c2cc[n+](COC(=O)C(C)(C)C)cc2)n2c1CCC2`, the TGI in the test on UACC-257 melanoma, in the test with MDA-N, with NCI-H522 lung, with LOX IMVI melanoma, in the test on DU-145 prostate and in the test with HL-60(TB) leukemia was > 100 µM each time. The TGI with HT29 colon, in the test on SK-MEL-5 melanoma, in the test on SNB-19 CNS, in the test on MDA-MB-435, in the test with EKVX NSCLC and in the test on ACHN renal was > 100 µM throughout. Besides, the TGI in the test with CAKI-1 renal, in the test on M14 melanoma and in the test with OVCAR-3 ovarian was > 100 µM each time.
For the compound `CCOC(=O)C(C)NC(=O)C(C)NC(=O)C(C)NC(=O)C(C)NC(=O)C(C)NC(=O)OCc1ccccc1` (stereo not given), the TGI in the test on UACC-257 melanoma, in the test with MDA-N, with NCI-H522 lung, in the test with LOX IMVI melanoma, with DU-145 prostate and in the test with HL-60(TB) leukemia was > 100 µM each time. Further, the TGI in the test on HT29 colon, in the test with SK-MEL-5 melanoma, in the test on SNB-19 CNS, in the test with MDA-MB-435, with EKVX NSCLC and in the test on ACHN renal was > 100 µM each time. The TGI in the test with CAKI-1 renal, with M14 melanoma and in the test on OVCAR-3 ovarian was > 100 µM in each case.
`CCCCC(Sc1cc(Cl)c(C)cc1S(=O)(=O)Nc1n[nH]c(N)n1)C(=O)OC` (stereo not given): the TGI with UACC-257 melanoma, with MDA-N, with NCI-H522 lung, in the test with LOX IMVI melanoma, with DU-145 prostate and in the test on HL-60(TB) leukemia was > 10 µM throughout. Also, the TGI in the test with HT29 colon, in the test on SK-MEL-5 melanoma, with SNB-19 CNS, in the test on MDA-MB-435, with EKVX NSCLC and in the test on ACHN renal was > 10 µM throughout. Moreover, the TGI in the test with CAKI-1 renal, with M14 melanoma and with OVCAR-3 ovarian was > 10 µM each time.
Turning to `COCCCNC(=O)C1=C(C)NC(C)=C(C(=O)NCCCOC)C1`, the TGI was > 100 µM with UACC-257 melanoma; > 100 µM with MDA-N; 27.4 µM in the test on NCI-H522 lung; > 100 µM in the test with LOX IMVI melanoma; > 100 µM with DU-145 prostate; > 100 µM with HL-60(TB) leukemia. Also, the TGI with HT29 colon is > 100 µM; in the test with SK-MEL-5 melanoma, > 100 µM; in the test on SNB-19 CNS it was > 100 µM; with MDA-MB-435, > 100 µM; in the test on EKVX NSCLC it was 40.5 µM; in the test on ACHN renal, > 100 µM. Moreover, the TGI with CAKI-1 renal, in the test on M14 melanoma and in the test with OVCAR-3 ovarian was > 100 µM each time.
Consider `c1cc2c(c(NC3=NCCO3)c1)CCC2`, for which the TGI with UACC-257 melanoma, in the test with MDA-N, in the test with NCI-H522 lung, in the test on LOX IMVI melanoma, with DU-145 prostate and in the test with HL-60(TB) leukemia was > 100 µM each time. Also, the TGI in the test with HT29 colon, with SK-MEL-5 melanoma, in the test on SNB-19 CNS, with MDA-MB-435, in the test with EKVX NSCLC and with ACHN renal was > 100 µM in each case. In addition, the TGI in the test with CAKI-1 renal, in the test on M14 melanoma and in the test with OVCAR-3 ovarian was > 100 µM in each case.
Consider `CC(C)(C)Nc1noc(=O)n1C(C)(C)C`, for which the TGI in the test with UACC-257 melanoma, in the test with MDA-N, in the test with NCI-H522 lung, in the test with LOX IMVI melanoma, in the test on DU-145 prostate and with HL-60(TB) leukemia was > 100 µM in each case. Besides, the TGI with HT29 colon, with SK-MEL-5 melanoma, in the test with SNB-19 CNS, with MDA-MB-435, in the test with EKVX NSCLC and in the test on ACHN renal was > 100 µM each time. The TGI in the test with CAKI-1 renal, in the test on M14 melanoma and with OVCAR-3 ovarian was > 100 µM each time.
Consider `CC(=O)NC(c1nc2cc(C)c(C)cc2[nH]1)c1nc2cc(C)c(C)cc2[nH]1`, for which the TGI with UACC-257 melanoma was 71.1 µM; with MDA-N it was 48.6 µM; in the test on NCI-H522 lung, 18 µM; with LOX IMVI melanoma it was 59.1 µM; in the test with DU-145 prostate, 57.7 µM; with HL-60(TB) leukemia it was > 100 µM. The TGI in the test with HT29 colon is 78.1 µM; with SK-MEL-5 melanoma, 32 µM; with SNB-19 CNS, > 100 µM; with MDA-MB-435, 42.3 µM; with EKVX NSCLC it was 84.8 µM; with ACHN renal, > 100 µM. In addition, the TGI was 52.2 µM with CAKI-1 renal, > 100 µM in the test with M14 melanoma and 42.2 µM with OVCAR-3 ovarian.
For `COC(=O)[C@@H]1CN(C(C)=O)C(=O)N1C(=O)OCc1ccccc1`, the TGI with UACC-257 melanoma, in the test on MDA-N, in the test on NCI-H522 lung, with LOX IMVI melanoma, in the test with DU-145 prostate and in the test with HL-60(TB) leukemia was > 100 µM each time. For the same compound, the TGI in the test with HT29 colon, in the test with SK-MEL-5 melanoma, in the test with SNB-19 CNS, with MDA-MB-435, with EKVX NSCLC and in the test with ACHN renal was > 100 µM each time. The TGI in the test with CAKI-1 renal, in the test with M14 melanoma and in the test on OVCAR-3 ovarian was > 100 µM throughout.
As for `COC(=O)C1OC(O[C@H]2CC[C@]3(C)[C@H]4CC=C5[C@@H]6CC(C)(C)CC[C@]6(C(=O)OC6OCC(O)C(O)C6OC6OC(C)C(OC7OCC(O)C(OC8OCC(O)C(O)C8O)C7O)C(OC7OCC(O)C(O)C7O)C6O)CC[C@@]5(C)[C@]4(C)CC[C@H]3C2(C)C)C(O)C(OC2OCC(O)C(O)C2O)C1O` (stereo not given in full), the TGI in the test on UACC-257 melanoma was 8.58 µM and 10.8 µM; in the test with MDA-N it was 3.35 µM and 4.04 µM; in the test with NCI-H522 lung, 5.32 µM and 5.78 µM; with LOX IMVI melanoma, 26.5 µM and 21.6 µM; in the test on DU-145 prostate it was > 70.6 µM and 37.2 µM; in the test on HL-60(TB) leukemia it was 4.36 µM and 5.23 µM. Further, the TGI with HT29 colon is 10.1 µM and 10.9 µM; in the test with SK-MEL-5 melanoma, 7 µM and 12.1 µM; in the test on SNB-19 CNS it was > 100 µM and 20.1 µM; in the test on MDA-MB-435 it was 4.13 µM and 4.42 µM; with EKVX NSCLC it was 16.3 µM and 14.8 µM; in the test on ACHN renal, 22.1 µM and 15.9 µM. Further, the TGI in the test on CAKI-1 renal is 35.4 µM and 17.9 µM; in the test with M14 melanoma it was 3.7 µM and 5.19 µM; in the test with OVCAR-3 ovarian, > 100 µM and 45.9 µM.

Source of the values: PubChem BioAssay (NCI).
